PubChem BioAssay (NCI)
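All cell lines were grown in 96-well plates and treated with compound for 48 hours. The concentration for full growth arrest is given as TGI.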

Tests used:
Assay in all cases: NCI-60 cell line screen, 48 h
BT-549 breast = test system: BT-549 breast
DU-145 prostate = test system: DU-145 prostate
EKVX NSCLC = test system: EKVX NSCLC
KM12 colon = test system: KM12 colon
NCI-H23 lung = test system: NCI-H23 lung
NCI-H522 lung = test system: NCI-H522 lung
PC-3 prostate = test system: PC-3 prostate
SF-539 CNS = test system: SF-539 CNS
SK-MEL-2 melanoma = test system: SK-MEL-2 melanoma
SN12C renal = test system: SN12C renal
T-47D breast = test system: T-47D breast

SMILES | TGI (BT-549 breast) | TGI (DU-145 prostate) | TGI (EKVX NSCLC) | TGI (KM12 colon) | TGI (NCI-H23 lung) | TGI (NCI-H522 lung) | TGI (PC-3 prostate) | TGI (SF-539 CNS) | TGI (SK-MEL-2 melanoma) | TGI (SN12C renal) | TGI (T-47D breast)
Cc1ccnc2nc3[nH]c4ccccc4c3cc12 | > 100 µM | > 100 µM | > 100 µM | > 100 µM | > 100 µM | > 100 µM | > 100 µM | > 100 µM | > 100 µM | > 100 µM | > 100 µM
COc1cc(C2S/C(=C/c3ccccc3)C(=O)N2c2ccc([N+](=O)[O-])cc2)cc(OC)c1OC (configuration not stated) | > 100 µM | > 89.1 µM | > 100 µM | > 100 µM | > 100 µM | > 100 µM | > 100 µM | > 100 µM | > 100 µM | > 100 µM | > 100 µM
CC1(C)OC(=O)CC12CCN(Cc1ccccc1)CC2 | > 100 µM | > 100 µM | > 100 µM | – | > 100 µM | > 100 µM | > 100 µM | > 100 µM | > 100 µM | > 100 µM | > 100 µM
COC(=O)/C(C#N)=C(\Nc1ccccc1)N1CCCCC1 | > 100 µM | > 100 µM | > 100 µM | – | > 100 µM | > 100 µM | > 100 µM | > 100 µM | > 100 µM | > 100 µM | > 100 µM
Cc1n[nH]c(=O)n1/N=C/c1cccnc1 | > 100 µM | > 100 µM | > 100 µM | > 100 µM | > 100 µM | > 100 µM | > 100 µM | > 100 µM | > 100 µM | > 100 µM | > 100 µM
O=c1[nH]c(=O)n(C2CC(O)C(CO)O2)c2nc3ccc4ccccc4c3nc12 (configuration not stated) | > 100 µM | > 100 µM | > 100 µM | > 100 µM | > 100 µM | > 100 µM | > 100 µM | > 100 µM | > 100 µM | > 100 µM | > 100 µM
O=S1(=O)OCCCOS(=O)(=O)C1Br | > 100 µM | > 100 µM | > 100 µM | > 100 µM | > 100 µM | > 100 µM | > 100 µM | > 100 µM | > 100 µM | > 100 µM | > 100 µM
CC1(C)N=C(N)N=C(N)N1c1cccc(OCc2cccc([N+](=O)[O-])c2)c1 | > 100 µM | > 100 µM | > 100 µM | > 100 µM | > 100 µM | > 100 µM | > 82.7 µM | > 79.4 µM | > 100 µM | > 100 µM | > 89.1 µM
CSc1ccc(-c2cc(-c3nc4ccccc4[nH]3)nc3[nH]c(-c4nc5ccccc5[nH]4)cc(=O)c23)cc1 | > 100 µM | > 100 µM | > 100 µM | > 100 µM | > 100 µM | > 100 µM | > 100 µM | > 100 µM | > 100 µM | > 100 µM | > 100 µM
